# Legend:
# Experiment in all cases: ITC
# [1] = tested on: GR (xpt-pbuX guanine riboswitch) (RNA, riboswitch) GGACAUAUAAUCGCGUGGAUAUGGCACGCAAGUUUCUACCGGGCACCGUAAAUGUCCGACUAUGUCC; conditions: 100 mM KCl, 10 mM MgCl2
# [2] = tested on: GRA (GR C74U) (RNA, riboswitch) GGACAUAUAAUCGCGUGGAUAUGGCACGCAAGUUUCUACCGGGCACCGUAAAUGUCCGAUUAUGUCC; conditions: 100 mM KCl, 10 mM MgCl2; for KD: apparent
# [3] = tested on: GR(A21G/U75C) (RNA, riboswitch) GGACAUGUAAUCGCGUGGAUAUGGCACGCAAGUUUCUACCGGGCACCGUAAAUGUCCGACCAUGUCC; conditions: 100 mM KCl, 10 mM MgCl2; 50 mM K-HEPES, pH 7.5, 30 °C; apparent
# [4] = tested on: GRA(A21G/U75C) (RNA, riboswitch) GGACAUGUAAUCGCGUGGAUAUGGCACGCAAGUUUCUACCGGGCACCGUAAAUGUCCGAUCAUGUCC; conditions: 100 mM KCl, 10 mM MgCl2; 50 mM K-HEPES, pH 7.5, 30 °C; apparent
# [5] = tested on: GRA(A21U/U75A) (RNA, riboswitch) GGACAUUUAAUCGCGUGGAUAUGGCACGCAAGUUUCUACCGGGCACCGUAAAUGUCCGAUAAUGUCC; conditions: 100 mM KCl, 10 mM MgCl2; 50 mM K-HEPES, pH 7.5, 30 °C; apparent
# [6] = tested on: GR(A21U/U75A) (RNA, riboswitch) GGACAUUUAAUCGCGUGGAUAUGGCACGCAAGUUUCUACCGGGCACCGUAAAUGUCCGACAAUGUCC; conditions: 100 mM KCl, 10 mM MgCl2; 50 mM K-HEPES, pH 7.5, 30 °C; apparent
# [7] = 50 mM K-HEPES, pH 7.5, 30 °C, apparent
# [8] = data not shown, text says "GR or GRA"
# [9] = 50 mM K-HEPES, pH 7.5, 30 °C, no detectable binding
compound,measurement,setting,value
CNc1nc2[nH]cnc2c(=O)[nH]1,binding,"[1]; 50 mM K-HEPES, pH 7.5, 30 °C, data not shown",no
COc1nc(N)nc2[nH]cnc12,KD,"[2]; 50 mM K-HEPES, pH 7.5, 30 °C",20 ± 6 µM
same,KD,[1]; [7],23 ± 6 µM
CSc1nc(N)nc2[nH]cnc12,binding,[1]; [8],no
Nc1nc(=S)c2[nH]cnc2[nH]1,KD,[1]; [7],0.073 µM
Nc1nc(Br)c2[nH]cnc2n1,KD,"[2]; 50 mM K-HEPES, pH 7.5, 30 °C",2.7 ± 1.2 µM
same,KD,[1]; [7],2.1 ± 0.6 µM
Nc1nc(Cl)c2[nH]cnc2n1,KD,"[2]; 50 mM K-HEPES, pH 7.5, 30 °C",0.72 ± 0.04 µM
same,KD,[1]; [7],0.89 ± 0.06 µM
same,KD,[3],24 ± 6.0 µM
Nc1nc(F)nc2[nH]cnc12,KD,"[2]; 50 mM K-HEPES, pH 7.5, 30 °C",4.0 ± 1.1 µM
Nc1nc(N)c2[nH]cnc2n1,KD,[1]; [7],4.1 ± 0.6 µM
same,KD,[3],13 ± 1.1 µM
Nc1nc(OCc2ccccc2)c2[nH]cnc2n1,binding,[1]; [8],no
Nc1nc2[nH]cnc2c(=O)[nH]1,binding,[2]; [9],no
Nc1ncc2[nH]cnc2n1,KD,[1]; [7],4.4 ± 1.2 µM
Nc1ncnc2[nH]cnc12,KD,"[2]; 50 mM K-HEPES, pH 7.5, 30 °C",0.47 ± 0.04 µM
same,binding,[1]; [9],no
same,KD,[4],6.0 ± 1.1 µM
same,KD,[5],2.1 ± 0.19 µM
O=c1[nH]c(=O)c2[nH]cnc2[nH]1,binding,[2]; [9],no
O=c1[nH]cnc2nc[nH]c12,binding,[2]; [9],no
same,binding,"[1]; pH 7.5 to 6.0, no change, apparent",yes
same,KD,[6],3.3 ± 0.32 µM
same,KD,[3],9.5 ± 0.22 µM
c1coc(CNc2ncnc3[nH]cnc23)c1,binding,[2]; [8],no

# Source: article PMC2721690 (2009)
